The record followed here is ChEMBL document CHEMBL1158198, “Indole Alkaloids of Haplophyton crooksii 1” (J Nat Prod, 1996).

Each structure is given as a SMILES string.

In the assay the target is Acetylcholinesterase (Electrophorus electricus, UniProt O42275). Briefly: Inhibition of electric eel AChE.
Chain of Acetylcholinesterase (O42275 whole entry): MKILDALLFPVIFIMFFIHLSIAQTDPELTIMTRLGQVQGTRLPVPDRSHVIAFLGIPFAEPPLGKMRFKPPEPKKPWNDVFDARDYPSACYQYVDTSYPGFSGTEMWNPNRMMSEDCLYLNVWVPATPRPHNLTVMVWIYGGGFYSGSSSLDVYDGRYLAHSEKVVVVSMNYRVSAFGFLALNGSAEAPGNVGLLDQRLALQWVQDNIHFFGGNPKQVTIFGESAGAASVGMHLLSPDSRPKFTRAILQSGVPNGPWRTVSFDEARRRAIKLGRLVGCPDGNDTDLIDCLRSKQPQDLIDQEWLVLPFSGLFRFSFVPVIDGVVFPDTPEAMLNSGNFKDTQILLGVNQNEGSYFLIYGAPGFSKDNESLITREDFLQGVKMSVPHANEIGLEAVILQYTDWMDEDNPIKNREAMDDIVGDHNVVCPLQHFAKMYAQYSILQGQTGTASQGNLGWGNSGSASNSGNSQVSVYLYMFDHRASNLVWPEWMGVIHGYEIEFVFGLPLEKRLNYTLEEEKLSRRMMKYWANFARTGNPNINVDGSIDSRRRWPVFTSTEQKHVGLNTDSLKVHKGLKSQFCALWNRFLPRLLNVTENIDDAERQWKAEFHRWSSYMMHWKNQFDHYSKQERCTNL
The IC50 is the concentration needed to halve the response being measured. A low value points to greater potency in that assay. `C/C=C1/CN2CC[C@@]34c5ccccc5N(C)[C@H]5O[C@]3(O)[C@@H]2C[C@@H]1[C@]54C(=O)OC` [LANCEOMAGINE]: the half-maximal inhibitory concentration (IC50) came to 383 µM. As to `COc1c([C@@]23CCN(C)[C@]4(CCC(=O)N4c4c(O)cccc42)C3=O)cc2c(c1OC)N(C)[C@@H]1C=C[C@@]34CCCN5CC[C@@]21[C@]53OC(=O)C4` [HAPLOPHYTINE], the midpoint of inhibition, the IC50, lay at 225 µM. Compared with the last molecule, the IC50 is about 1.7-fold lower. `C/C=C1\CN2[C@H]3C[C@H]1C(C(=O)OC)[C@@H]2Cc1c3n(C)c2ccc(OC)cc12` (some centres not stated): half-maximal inhibition (IC50) required 135 µM. For `CC[C@H]1[C@@H]2CCN3CC[C@@]4(C(=C2C(=O)OC)Nc2ccccc24)[C@@H]13` [TUBOTAIWINE] the value was 108 µM; for `COC(=O)[C@@H]1[C@H]2C[C@H]3c4[nH]c5ccccc5c4CCN3C[C@@H]2CC[C@@H]1O` [YOHIMBINE], 431 µM.

Molecule `CCC(=O)N1c2c(ccc(OC)c2O)[C@]23CCN4CCC[C@@]5(CC[C@@H]12)CC(=O)O[C@@]453` [CIMICIDINE] displayed a half-maximal inhibitory concentration (IC50) of 197 µM. Molecule `CCC(=O)N1c2c(O)cccc2[C@]23CCN4CCC[C@@]5(CC[C@@H]12)CC(=O)O[C@@]453` [CIMICINE] had an IC50 of 241 µM.

`C/C=C1/CN2CC[C@]34c5cccc(OC)c5N[C@H]3C[C@H]1C[C@H]24`: the IC50 is 57 µM. In turn, `C/C=C1/CN2[C@H]3Cc4c([nH]c5ccccc45)[C@@H]2C[C@@H]1[C@]3(CO)C(=O)OC` [AKUAMMIDINE] yielded an IC50 of 188 µM.

`C/C=C1/CN2CC[C@]34C(=C(C(=O)OC)[C@H]1C[C@H]23)Nc1ccccc14` [AKUAMMICINE] showed a 50% inhibitory concentration (IC50) of 221 µM. The IC50 values of the last two molecules are within 1.5-fold of each other. Molecule `CC[C@@H]1CCCN(CCc2c(C(C)=O)[nH]c3ccccc23)C1` [CROOKSIDINE] had an IC50 of 175 µM. The molecule `CCc1[nH]c2ccccc2c1CCN1CCCC(CC)C1` (configuration not stated) [DECARBOMETHOXYTETRAHYDROSECODINE] returned a half-maximal inhibitory concentration (IC50) of 203 µM.
